# Results taken from US7829087B2, “Methods of treating cognitive impairment” (Elan Pharmaceuticals, Inc., priority 2001, dated 2010).
# “And” between values parts separate entries of the source, which are not always exact repeats. Equal entries are not always repeated.
# Key:
# LTP in the CA1 area = assay: Aβ-mediated inhibition of LTP in the CA1 in vivo; parameters: species or system rat
# LTP in the dentate gyrus = assay: Aβ-mediated inhibition of LTP in the dentate gyrus in vitro (hippocampal slices, field EPSPs); assay type: cell-based, rat; details: for Suppression of Aβ inhibition of LTP in vitro (figure legends): dentate gyrus in vitro
# Experimental: All experiments were carried out on transverse slices of the rat hippocampus (males, age 3-4 weeks, weight 40-80 g) or mice (males, age 3-4 months). The brains were rapidly removed after decapitation and placed in cold oxygenated (95% O2/5% CO2) media. Slices were cut at a thickness of 350 μm using an Intracell Plus 1000 and placed in a storage container containing oxygenated medium at room temperature (20-22° C.) for 1 hr. The slices were then transferred to a recording chamber for submerged slices and continuously superfused at a rate of 5-6 ml/min at 30-32° C. The control media contained (in mM): NaCl, 120; KCl 2.5, NaH2PO4, 1.25; NaHCO3 26; MgSO4, 2.0; CaCl2, 2.0; D-glucose 10. All solutions contained 100 μM picrotoxin (Sigma) to block GABAA-mediated activity.
# Standard electrophysiological techniques were used to record field potentials. Presynaptic stimulation was applied to the medial perforant pathway of the dentate gyrus using a bipolar insulated tungsten wire electrode, and field excitatory postsynaptic potentials (EPSPs) were recorded at a control test frequency of 0.033 Hz from the middle one-third of the molecular layer of the dentate gyrus with a glass microelectrode. The inner blade of the dentate gyrus was used in all studies. In each experiment, an input-output curve (afferent stimulus intensity versus EPSP amplitude) was plotted at the test frequency. For all experiments, the amplitude of the test EPSP was adjusted to one-third of maximum (˜1.2 mV). LTP was evoked by 8 trains of high frequency stimulation (HFS), each of 8 stimuli at 200 Hz, inter-train interval 2s, with the stimulation voltage increased during the HFS so as to evoke an initial EPSP of the train of double the normal test EPSP amplitude. Control (vehicle alone) and experimental levels of LTP were measured on slices prepared from the same hippocampus. Recordings were analysed using p-CLAMP (Axon Instruments, CA, USA). The values reported herein were the means±S.E.M. for n slices. Two-tailed Student's t-test was used for statistical comparison.
# Synthetic Aβ (1-42) was obtained from Bachem. For the in vitro experiments, synthetic Aβ1-42 was prepared as a stock solution of 50 μM in ammonium hydroxide (0.1%), stored at −20° C., and then added to physiological medium immediately prior to each experiment. For the in vivo experiments, synthetic Aβ(1-42) (Bachem) was re-suspended in ice-cold milliQ water or Teplow. An aliquot was removed and centrifuged at 100,000 g for 3 h, conditions known to pellet fibrils and protofibrils (Klyubin et al., 2004).
# The following integrin-αv antibodies (all IgG1 isotype) were used in the studies: 18C7, 17E6 and 20A9 (all from Calbiochem). The control antibodies used were 7H10, an IgG2a mouse antibody against human ICAM-1 and 27/1, an IgG1 isotype. Other compounds used were echistatin (Source), SM256 (3-[1-[3-(N-imidazol-2-ylamino)propyl]indazol-5-ylcarbonylamino]-2(S)-(2,4,6-trimethylbenzenesulfonylamino)propionic acid trifluoroacetate) which was prepared by Elan Pharmaceuticals (recoded as ELN 151993) according to the methods of Van Maes et al, 1994, superfibernectin (Sigma) and phalloidin (Calbiochem). In the in vivo experiments, SM256 was prepared for i.p administration in a suspension of Tween 80 (Sigma) in saline (15% v/v).
# [1] = test system: human cortical cultures (HCC); assay: Aβ neurotoxicity in human cortical neurons (alamar blue); assay type: cell-based; details: for Maximal inhibition of toxicity (%): Aβ neurotoxicity in HCC, 3 days; for Inhibition of Aβ neurotoxicity (in words): HCC
# Experimental: (§1) Tissue culture plates were coated with polyethyleneimine (PEI) in 150 mM sodium borate, pH 8.5, and incubated overnight at room temperature. Prior to adding cells, the wells were washed with PBS and Minimal Essential Media (MEM with 10% FBS) was added until cells were ready for plating. Human fetal cerebral cortex (E13-E16) was rinsed with Hank's Balanced Salt Solution (HBSS). Tissue was triturated in 1 mg of DNAse in HBSS. This suspension was filtered through a 100 micron nylon cell strainer and spun at 250×g for 5 minutes. The cells were resuspended in trypsin and incubated at 37° C. for 20 minutes. Modified Minimal Essential Media (MMEM with 10% FBS and 1 mg of DNase) was added and the cells were resuspended; then collected again by centrifugation. Cells were resuspended in MMEM containing B27, and plated in washed PEI-coated plates at 125,000 cells/well in 96 well plates or at 2.5 million cells/well in 6 well plates. The human cortical cultures (HCC) were incubated for 3 weeks with biweekly medium exchanges prior to treatment.
# (§2) Aβ was generated by adding double distilled water (ddH2O) to Aβ to make up a 1 mM stock. This was aged for 3 days at 37° C., aliquoted, and stored frozen at −20° C. Soluble Aβ was made by adding DMSO to Aβ to make a 7.5 mM stock, sonicating for 30 minutes, aliquoting, and freezing at −20° C. Neurotoxic Aβ was generated by adding ddH2O to Aβ, aliquoting, and freezing at −20° C.
# HCC were pretreated with antibodies or ligands for 30 minutes in neuronal medium (MEM) supplemented with glutamine and penicillin/streptomycin (basal media). One micromolar Aβ in basal medium was added for 1 hour. The medium was removed and the HCC were treated with antibodies or ligands and 20 μM soluble Aβ in basal medium for 3 days. At three days, the toxicity was determined by incubating in 10% alamar blue in basal medium for two hours. Fluorescence levels were measured relative to control and Aβ treated wells in triplicate.
# [2] = test system: Aβ meshwork in human cortical cultures (HCC); assay: Aβ meshwork formation on human cortical cultures (Aβ immunofluorescence); assay type: cell-based; details: for Inhibition of Aβ meshwork formation (in words): HCC
# Experimental: as §1, §2
# HCC treated with Aβ for 72 hours were fixed with 4% paraformaldehyde, stained with 5 μg/ml anti-Aβ-3D6-biotin, and visualized with 10 μg/ml streptavidin-FITC (Jackson).
# Human cortical neurons = assay: Amylin two component toxicity; assay type: cell-based; details: seed amylin 1 hour, then soluble amylin; toxicity after 1 day
# Experimental: Seed or aggregated amylin (1 mM) from CPR, Inc. (641-80, lot NG-0213) was made by adding 200 μl water/mg powder and then aging the solution for three days at 37° C. Soluble amylin (5 mM) was prepared by adding 40 μl DMSO/mg powder and sonicating the mixture for 30 minutes in a water bath. Both stock solutions were aliquoted and frozen until ready for use. Soluble amylin stock was diluted to 20 μM in culture medium just prior to use and filtered through an Amicon 30 filter that had been pre-washed with water. Filtered material was then diluted to its appropriate concentration.
# Human cortical neurons (at 125,000 cells/96 well) were treated for 1 hour with seed amylin at 5 μM, 100 μl/well. Cells were aspirated and soluble amylin was added back at 5 μM per 100 μl/well. For compound studies, 50 μl of 2× compound was added before adding the soluble amylin.
compound,measurement,setting,value
"Cc1cc(C)c(S(=O)(=O)N[C@@H](CNC(=O)c2ccc3c(cnn3CCCNc3ncc[nH]3)c2)C(=O)O)c(C)c1.O=C(O)C(F)(F)F [SM256, 3-[1-[3-(N-imidazol-2-ylamino)propyl]indazol-5-ylcarbonylamino]-2(S)-(2,4,6-trimethylbenzenesulfonylamino)propionic acid trifluoroacetate]",Suppression of soluble Aβ inhibition of LTP in vivo (figure legends),LTP in the CA1 area; CA1 area in vivo,suppresses inhibition of LTP by soluble Aβ
same,LTP after SM256 plus soluble Aβ,"LTP in the CA1 area; SM256 40 mg in 1.2 ml vehicle i.p., Aβ 50 pmol i.c.v. 40 min later, 10 min before HFS",133±5%
same,Effect of SM256 alone on baseline synaptic transmission or control LTP,"LTP in the CA1 area; SM256 40 mg in 1.2 ml vehicle, i.p.",no discernible effect on baseline synaptic transmission or control LTP
same,LTP in the presence of Aβ plus SM256,"LTP in the dentate gyrus; SM256 10 μl M plus Aβ, n=5",129±5%
same,LTP with SM256 alone,"LTP in the dentate gyrus; SM256 10 μl M, no Aβ",148±7%
same,Suppression of Aβ inhibition of LTP in vitro (figure legends),LTP in the dentate gyrus,suppresses inhibition of LTP by Aβ
"Fibronectin: αvβ1 integrin ligand, large multidomain glycoprotein",Maximal inhibition of toxicity (%),[1],32%
same,Inhibition of Aβ neurotoxicity (in words),[1],capable of inhibiting Aβ meshwork formation and neurotoxicity
same,Meshwork Inhibition,"[2]; Aβ meshwork on HCC, Table 1",Yes
same,Inhibition of Aβ meshwork formation (in words),[2],capable of inhibiting Aβ meshwork formation and neurotoxicity
C=C1[C@@H](C)[C@H]2[C@H](Cc3ccccc3)NC(=O)[C@]23[C@H](OC(C)=O)/C=C/[C@@](C)(O)C(=O)[C@@H](C)C/C=C/[C@H]3[C@@H]1O [cytochalasin D],Protection against amylin two component toxicity (in words),Human cortical neurons,amylin two component toxicity is further inhibited
"Aβ: Synthetic Aβ (1-42) from Bachem, used to inhibit LTP",LTP (% baseline) in the presence of soluble fibril-free Aβ,"LTP in the CA1 area; Aβ 50 pmol in 5 μl i.c.v., 10 min prior to HFS, 3 h post-HFS, anaesthetized rats",105±5%
same,LTP after peripheral vehicle followed by central injection of Aβ,"LTP in the CA1 area; vehicle i.p., Aβ 50 pmol i.c.v.",103±10%
same,"LTP (EPSP, % baseline) in the presence of Aβ alone","LTP in the dentate gyrus; Aβ 500 nM, 1 h post-HFS, dentate gyrus slices",105±3 % baseline and 105±6 % baseline and 103±3 % baseline
Laminin,Maximal inhibition of toxicity (%),[1],20%
same,Inhibition of Aβ neurotoxicity (in words),[1],not capable of inhibiting Aβ meshwork or neurotoxicity
same,Inhibition of Aβ meshwork formation (in words),[2],not capable of inhibiting Aβ meshwork or neurotoxicity
echistatin (QCESGPCCRNCKFLKEGTICKRARGDDMDDYCNGKTCDCPRNPHKGPAT),Suppression of Aβ inhibition of LTP in vitro (figure legends),LTP in the dentate gyrus,suppresses inhibition of LTP by Aβ
same,LTP in the presence of Aβ plus echistatin,"LTP in the dentate gyrus; echistatin 50 nM plus Aβ, n=5",143±6%
same,LTP with echistatin alone,"LTP in the dentate gyrus; echistatin 50 nM, no Aβ",158±5%
